From patent publication US20100168125A1, “INDOLIZINES AND AZA-ANALOG DERIVATIVES THEREOF AS CNS ACTIVE COMPOUNDS” (priority 2007, published 2010)

How the values were obtained:
human D3 receptor [1] = target: T1, human D3 receptor (Homo sapiens, UniProt P35462); assay: radioligand binding with [^3H]spiperone, D3; settings: ratio of Ki values
T1 construct: expressed in transfected cells; host or cells: Chinese hamster ovary (CHO) cells, membranes
Outline: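 Membranes from CHO cell lines expressing each human receptor subtype incubated with [^3H]spiperone. Test compounds spanned subnanomolar to micromolar concentrations in competition format.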

human D2long receptor = target: T2, human D2long receptor (Homo sapiens, UniProt P14416); settings: published derivatives with carboxamide alkylene spacer; read-out: Ki D2lo; cited from earlier work
T2 construct: expressed in transfected cells; host or cells: Chinese hamster ovary (CHO) cells, membranes

human D2short receptor = target: T3, human D2short receptor (Homo sapiens, UniProt P14416); settings: published derivatives with carboxamide alkylene spacer; read-out: Ki D2sh; cited from earlier work
T3 construct: expressed in transfected cells; host or cells: Chinese hamster ovary (CHO) cells, membranes

human D3 receptor [2] = target: T1, human D3 receptor; settings: published derivatives with carboxamide alkylene spacer; cited from earlier work
human D4.4 receptor = target: T4, human D4.4 receptor (Homo sapiens, UniProt P21917); settings: published derivatives with carboxamide alkylene spacer; cited from earlier work
T4 construct: expressed in transfected cells; host or cells: Chinese hamster ovary (CHO) cells, membranes
T4 sequence (P21917 1-419): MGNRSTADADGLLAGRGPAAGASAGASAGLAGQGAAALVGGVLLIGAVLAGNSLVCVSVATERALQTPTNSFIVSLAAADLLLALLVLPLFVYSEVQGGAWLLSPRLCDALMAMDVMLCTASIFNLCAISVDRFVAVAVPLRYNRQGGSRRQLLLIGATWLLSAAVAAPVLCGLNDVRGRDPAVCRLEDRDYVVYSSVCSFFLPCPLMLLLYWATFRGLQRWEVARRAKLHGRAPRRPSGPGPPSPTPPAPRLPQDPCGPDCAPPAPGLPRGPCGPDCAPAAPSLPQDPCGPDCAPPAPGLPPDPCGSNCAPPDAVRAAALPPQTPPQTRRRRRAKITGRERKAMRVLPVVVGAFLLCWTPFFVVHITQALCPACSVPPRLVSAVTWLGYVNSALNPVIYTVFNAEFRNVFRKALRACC

5-HT1A receptor = target: T5, 5-HT1A receptor (Sus scrofa, UniProt A0A4X1UTF5); settings: published derivatives with carboxamide alkylene spacer; cited from earlier work
T5 construct: membrane preparations from porcine cortical material; from tissue; host or cells: porcine cerebral cortex membranes
T5 sequence (A0A4X1UTF5 1-422): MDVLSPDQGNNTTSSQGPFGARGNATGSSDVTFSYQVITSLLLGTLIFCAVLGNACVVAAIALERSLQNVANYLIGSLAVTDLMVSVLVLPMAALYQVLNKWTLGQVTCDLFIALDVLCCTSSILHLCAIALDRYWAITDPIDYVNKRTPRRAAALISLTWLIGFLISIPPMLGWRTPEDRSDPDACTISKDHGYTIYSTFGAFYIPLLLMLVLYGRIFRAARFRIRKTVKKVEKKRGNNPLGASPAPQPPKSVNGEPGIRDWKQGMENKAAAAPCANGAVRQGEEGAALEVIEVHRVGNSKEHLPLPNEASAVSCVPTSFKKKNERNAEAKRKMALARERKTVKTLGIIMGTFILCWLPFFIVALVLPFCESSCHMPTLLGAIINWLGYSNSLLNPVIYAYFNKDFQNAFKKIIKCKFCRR

5-HT2 receptor = target: T6, 5-HT2 receptor (Sus scrofa, UniProt P50129); settings: published derivatives with carboxamide alkylene spacer; cited from earlier work
T6 construct: membrane preparations from porcine cortical material; from tissue; host or cells: porcine cerebral cortex membranes
T6 sequence (P50129 whole entry): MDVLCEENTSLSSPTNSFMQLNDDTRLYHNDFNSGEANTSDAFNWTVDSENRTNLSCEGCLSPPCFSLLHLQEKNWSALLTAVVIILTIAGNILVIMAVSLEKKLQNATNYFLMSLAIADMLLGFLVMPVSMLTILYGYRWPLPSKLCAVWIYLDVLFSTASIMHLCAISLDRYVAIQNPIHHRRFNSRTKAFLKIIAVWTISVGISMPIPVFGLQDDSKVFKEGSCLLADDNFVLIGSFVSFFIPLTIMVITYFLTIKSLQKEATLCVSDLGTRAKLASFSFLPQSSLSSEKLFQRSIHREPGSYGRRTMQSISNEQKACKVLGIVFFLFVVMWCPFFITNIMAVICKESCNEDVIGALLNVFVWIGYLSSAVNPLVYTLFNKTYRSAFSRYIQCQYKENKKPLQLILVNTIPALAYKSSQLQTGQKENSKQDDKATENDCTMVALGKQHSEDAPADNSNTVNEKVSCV

T1 sequence (P35462 whole entry): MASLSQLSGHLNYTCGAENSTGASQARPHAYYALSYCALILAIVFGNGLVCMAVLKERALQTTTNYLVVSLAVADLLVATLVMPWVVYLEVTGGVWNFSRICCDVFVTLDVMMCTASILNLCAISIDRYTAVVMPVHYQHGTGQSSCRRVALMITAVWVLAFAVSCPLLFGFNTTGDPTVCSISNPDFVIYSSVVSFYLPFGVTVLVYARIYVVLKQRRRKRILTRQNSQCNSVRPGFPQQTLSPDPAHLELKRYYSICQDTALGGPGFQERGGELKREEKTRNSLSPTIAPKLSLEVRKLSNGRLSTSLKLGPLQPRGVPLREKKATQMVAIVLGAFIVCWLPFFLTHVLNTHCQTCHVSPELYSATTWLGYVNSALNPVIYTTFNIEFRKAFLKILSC
T3 sequence (P14416 1-414 isoform P14416-2): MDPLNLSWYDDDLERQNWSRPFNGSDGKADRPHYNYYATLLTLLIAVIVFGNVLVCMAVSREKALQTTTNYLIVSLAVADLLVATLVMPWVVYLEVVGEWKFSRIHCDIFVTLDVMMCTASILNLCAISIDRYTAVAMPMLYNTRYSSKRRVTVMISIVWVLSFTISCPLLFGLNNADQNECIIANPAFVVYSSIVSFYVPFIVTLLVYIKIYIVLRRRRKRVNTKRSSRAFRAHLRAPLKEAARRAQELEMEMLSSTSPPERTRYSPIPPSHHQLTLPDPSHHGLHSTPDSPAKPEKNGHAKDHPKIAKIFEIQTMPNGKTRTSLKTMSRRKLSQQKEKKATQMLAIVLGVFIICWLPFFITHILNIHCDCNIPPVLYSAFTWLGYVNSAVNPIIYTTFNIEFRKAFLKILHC
T2 sequence (P14416 whole entry): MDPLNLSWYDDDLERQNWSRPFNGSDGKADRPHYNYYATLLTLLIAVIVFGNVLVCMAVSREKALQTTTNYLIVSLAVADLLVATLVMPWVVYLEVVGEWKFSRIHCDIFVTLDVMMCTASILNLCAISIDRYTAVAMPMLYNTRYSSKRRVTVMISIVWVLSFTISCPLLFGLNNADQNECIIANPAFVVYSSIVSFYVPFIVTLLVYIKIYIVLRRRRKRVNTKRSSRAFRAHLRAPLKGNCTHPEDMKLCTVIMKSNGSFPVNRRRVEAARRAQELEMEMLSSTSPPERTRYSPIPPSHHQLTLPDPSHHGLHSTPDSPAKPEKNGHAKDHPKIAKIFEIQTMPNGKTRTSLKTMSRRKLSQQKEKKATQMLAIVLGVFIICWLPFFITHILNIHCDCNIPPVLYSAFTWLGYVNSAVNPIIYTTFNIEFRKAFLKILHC

ratio D2lo/D3 (human D3 receptor [1]) | SMILES | Ki (human D2long receptor) [nM] | Ki (human D2short receptor) [nM] | Ki (human D3 receptor [2]) [nM] | Ki (human D4.4 receptor) [nM] | Ki (5-HT1A receptor) [nM] | Ki (5-HT2 receptor) [nM]
15 | COc1ccccc1N1CCN(CCCCNC(=O)c2ccn3ncc(Br)c3c2)CC1 [Example B28] | 180 | 89 | 12 | 59 | 6.4 | 240
11 | COc1ccccc1N1CCN(CCCCNC(=O)c2ccc3nccn3c2)CC1 [Example B93] | 82 | 30 | 7.8 | 140 | 12 | 950
180 | O=C(NCCCCN1CCN(c2cccc(Cl)c2Cl)CC1)c1cc2ccccn2n1 [Example B8] | 66 | 44 | 0.36 | 380 | 53 | 82

SMILES | ratio D2lo/D3 (human D3 receptor [1]) | Ki (human D2long receptor) [nM] | Ki (human D2short receptor) [nM] | Ki (human D3 receptor [2]) [nM] | Ki (human D4.4 receptor) [nM] | Ki (5-HT1A receptor) [nM] | Ki (5-HT2 receptor) [nM]
COc1ccccc1N1CCN(CCCCNC(=O)c2ccn3ncc(Cl)c3c2)CC1 [Example B29] | 16 | 220 | 96 | 14 | 77 | 13 | 420
O=C(NCCCCN1CCN(c2cccc(Cl)c2Cl)CC1)c1ccn2nccc2c1 [Example B26] | 340 | 86 | 51 | 0.25 | 210 | 28 | 44
